# Laboratory results taken from paper PMC8525588, “Direct targeting of wild-type glucocerebrosidase by antipsychotic quetiapine improves pathogenic phenotypes in Parkinson’s disease models” (JCI Insight, 2021).
# Target: T1, β-glucocerebrosidase (GCase) (Homo sapiens, UniProt P04062)
# T1 construct: gene GBA1
# T1 sequence (P04062 40-536): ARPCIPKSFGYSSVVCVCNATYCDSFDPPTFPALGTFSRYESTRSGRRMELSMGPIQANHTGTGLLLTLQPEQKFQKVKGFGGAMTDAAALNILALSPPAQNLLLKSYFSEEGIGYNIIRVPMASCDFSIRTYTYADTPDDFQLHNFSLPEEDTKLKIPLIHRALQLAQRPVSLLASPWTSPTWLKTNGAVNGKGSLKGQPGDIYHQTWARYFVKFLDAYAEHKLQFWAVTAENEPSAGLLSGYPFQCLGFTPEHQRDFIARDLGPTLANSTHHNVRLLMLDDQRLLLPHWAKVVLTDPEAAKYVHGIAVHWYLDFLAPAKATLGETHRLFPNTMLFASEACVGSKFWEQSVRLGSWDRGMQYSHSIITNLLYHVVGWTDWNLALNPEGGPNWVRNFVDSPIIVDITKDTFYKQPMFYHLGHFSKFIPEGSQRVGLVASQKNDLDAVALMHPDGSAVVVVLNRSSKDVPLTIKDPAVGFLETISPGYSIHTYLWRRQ
# Test: biochemical
compound,measurement,value
OCCOCCN1CCN(C2=Nc3ccccc3Sc3ccccc32)CC1 [quetiapine],Kd,5 µM
